The experiment addresses T1, glutathione peroxidase 1 (GPx-1) (Bos taurus, UniProt P00435).
T1 sequence (P00435 1-205): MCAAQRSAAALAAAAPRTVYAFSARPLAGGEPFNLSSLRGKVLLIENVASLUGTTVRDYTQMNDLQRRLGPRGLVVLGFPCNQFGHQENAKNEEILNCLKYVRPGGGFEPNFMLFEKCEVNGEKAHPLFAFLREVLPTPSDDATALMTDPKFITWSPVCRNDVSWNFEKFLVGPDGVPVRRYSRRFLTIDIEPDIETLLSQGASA
Description: immobilized enzyme inactivation, GR-coupled NADPH assay at […] nm after wash-out. In kind it is biochemical.

This is an account of results in publication PMC3328416 (2012).

In turn, `CCN1C(=O)C=CC1=O` [NEM, N-ethylmaleimide] returned an IC50 of 8.77 mM.
